The text below walks through data of publication PMC8627988 (Molecular Metabolism, 2021).

The target in the test is T1, PPARγ (Homo sapiens, UniProt P37231).
T1 sequence (P37231 235-505 limits assumed): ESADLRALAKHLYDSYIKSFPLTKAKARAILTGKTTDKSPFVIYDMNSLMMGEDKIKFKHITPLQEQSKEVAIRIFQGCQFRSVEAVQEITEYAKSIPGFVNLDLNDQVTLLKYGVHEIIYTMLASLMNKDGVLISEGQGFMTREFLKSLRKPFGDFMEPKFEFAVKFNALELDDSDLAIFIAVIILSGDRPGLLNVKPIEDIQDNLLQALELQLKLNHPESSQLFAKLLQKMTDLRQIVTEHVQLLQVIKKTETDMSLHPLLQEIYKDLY
Nature of the test: fluorescence polarization competition binding. (In fluorescence polarisation assays a small probe gives low polarisation when free and higher when bound to something large.)

SMILES strings stand for the structures.

Consider `Cc1c(C)n(Cc2ccc(-c3ccccc3C(=O)O)cc2)c2ccc(C(=O)NCc3cccc(O)c3)cc12` [WO95E, 4'-((5-((3-hydroxybenzyl)carbamoyl)-2,3-dimethyl-1H-indol-1-yl)methyl)-[1,1′-biphenyl]-2-carboxylic acid], for which the half-maximal inhibitory concentration (IC50) (commonly the concentration needed to halve the response being measured) was about 0.011 µM.
